Laboratory results reported in patent US20230374071A1, “COMPOSITIONS FOR INDUCING URINARY VOIDING AND DEFECATION” (Dignify Therapeutics, LLC, priority 2020, published 2023).
“Also recorded” adds a separate entry of the source. Starred links: 1 amine or outer side, 2 acyl side, 3 side chain; linkers in the order of their positions; H or OH if unused. Non-standard residues stand in square brackets, D forms with d. Residues, ends and D or L forms follow the SMILES beside them. No end group written: not given here. gc = gamma constrained Gly-(R-gamma-lactam)-Leu moiety, (S)-2-((R)-3-amino)-2-oxopyrrolidin-1-yl)-4-methylpentanoyl, between Val and the C-terminal residue, CC(C)C[C@@H](C(=O)[*:2])N1CC[C@@H](N[*:1])C1=O; Nle = CCCC[C@H](N)C(=O)O; βAla = NCCC(=O)O

T1: human NK2 receptor (hNK2R) (Homo sapiens, UniProt P21452)
T1 construct: expressed in transfected cells; host or cells: CHO (CHO-hNK2)
T1 sequence (P21452 1-398): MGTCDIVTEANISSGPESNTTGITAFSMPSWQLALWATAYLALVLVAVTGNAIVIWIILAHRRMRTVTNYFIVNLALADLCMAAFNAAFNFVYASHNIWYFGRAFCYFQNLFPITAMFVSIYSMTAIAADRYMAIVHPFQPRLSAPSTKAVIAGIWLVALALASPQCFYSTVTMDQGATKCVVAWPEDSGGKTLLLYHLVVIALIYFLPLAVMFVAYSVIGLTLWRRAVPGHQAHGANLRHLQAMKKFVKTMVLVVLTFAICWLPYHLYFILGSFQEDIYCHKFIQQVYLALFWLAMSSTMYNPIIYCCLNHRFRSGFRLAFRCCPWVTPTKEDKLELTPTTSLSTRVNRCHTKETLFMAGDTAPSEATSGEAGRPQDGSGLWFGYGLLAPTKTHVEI

T2: human neurokinin 2 receptor (human, UniProt P21452 1-398)
T2 sequence (looked up): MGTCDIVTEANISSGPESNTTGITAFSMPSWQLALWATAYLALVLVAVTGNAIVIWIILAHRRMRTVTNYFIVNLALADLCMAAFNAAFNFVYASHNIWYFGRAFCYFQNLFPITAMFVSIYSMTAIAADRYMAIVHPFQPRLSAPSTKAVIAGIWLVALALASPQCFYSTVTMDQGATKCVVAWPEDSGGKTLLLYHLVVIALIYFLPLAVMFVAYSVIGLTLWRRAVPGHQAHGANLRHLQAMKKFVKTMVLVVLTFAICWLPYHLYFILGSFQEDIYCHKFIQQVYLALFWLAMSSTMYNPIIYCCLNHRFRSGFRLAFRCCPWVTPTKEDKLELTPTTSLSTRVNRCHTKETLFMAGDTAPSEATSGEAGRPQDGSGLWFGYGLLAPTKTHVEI


Assays:
[1] = Aqueous solubility of lyophilized peptide analogs (observed dissolution in Dulbecco's phosphate buffered saline and water); format: physicochemical; settings: observed dissolution in both Dulbecco's phosphate buffered saline and water; 5 mg/mL was the maximum tested
Experimental: Peptide analogs of NKA were purified to ≥95% purity. […] Compounds A, B, H, and J (SEQ ID NO: 1, 2, 8, and 10) were considered to be aqueous insoluble (<0.1 mg/mL). *Aqueous solubilities of the lyophilized peptide analogs were determined based on the observed dissolution in both Dulbecco's phosphate buffered saline and water. gc=Gly-(R-gamma-lactam)-Leu or (S)-2-((R)-3-amino)-2-oxopyrrolidin-1-yl)-4-methylpantanoyl.

[2] = molecular target: T3, human NK1 receptor (hNK1R) (Homo sapiens, UniProt P25103); test: Intracellular calcium mobilization (Fluo-4 AM, FLIPR) in CHO cells expressing recombinant hNK1R; format: cell-based; settings: for EC50: calcium mobilization, CHO-hNK1 cells, agonist potency, read-out: hNK1R pEC50 (converted); for calcium response at hNK1R: tested at concentrations up to 10 μM
T3 construct: expressed in transfected cells; host or cells: CHO (CHO-hNK1)
Experimental: (§1) Intracellular Calcium Mobilization: The agonist efficacy of compounds A-J at recombinant hNK2R or hNK1Rs expressed in CHO cells was assessed by measuring intracellular calcium mobilization using the calcium-sensitive dye Fluo-4 AM (MOLECULAR PROBES, EUGENE, OR, USA) and a Fluorometric Imaging Plate Reader (FLIPR, MOLECULAR DEVICES, CA, USA). CHO-hNK1 and CHO-hNK2 cells were seeded into black walled clear-bottom 384-well plates) at a density of 10,000 and 15,000 cells per well in 50 μL culture media, respectively, and grown overnight at 37° C. in a humidified CO2-incubator. Cells were washed in washing buffer using a Microplate Washer BIOTEK 384 instrument, leaving 20 μL of buffer per well after the final aspiration. Cells were then incubated at 37° C. with the cytoplasmic Ca^2+ indicator Fluo-4 AM at 2 μM in assay buffer containing 2.5 mM probenecid and 0.02% Pluronic F-127 for 45-60 min (cell loading). Cells were then washed 3 times in washing buffer using a Microplate Washer BIOTEK 384 instrument, leaving 30 μL of buffer in each well after the last wash. Loaded cell plates were transferred to the FLIPR Tetra instrument and calcium responses monitored as described below. A dual read-out FLIPR protocol was used, allowing for characterization of both agonist and antagonist profiles. For quality control, in each compound plate the signal was monitored by evaluating the responses to the reference standards (NKA and Substance P).
(§2) Twelve concentrations of each of the compounds A-J were evaluated for their ability to increase intracellular calcium levels with respect to the agonist reference standard (NKA or Substance P), and the pEC50 value was calculated. […] Concentration response curves of compounds were run in duplicate on two different occasions from the same stock solutions. Test solutions were prepared from 10 mM stock solutions in DMSO and 1 μL of each solution was stamped into V-bottom assay plates containing 49 μL assay buffer. The final concentration of DMSO was 0.5% in each well.
(§3) The results of the intracellular calcium mobilization by in vitro activation of recombinant hNK2Rs or hNK1Rs expressed in CHO cells as described above for the 10 peptide analogs A-J, is shown in Table 3 below. In addition, FIGS. 3A-3C are exemplary graphs showing stimulation of [Ca^2+] response in CHO cells expressing human NK2 or NK1 receptors by Compound A, Compound B, and Compound G, respectively. In FIGS. 3A-3C, data are expressed as % of the maximal response to substance P for NK1 receptors, or NKA for NK2 receptors. Each data point is the mean±SD from duplicate determinations.

[3] = molecular target: T1, human NK2 receptor (hNK2R); test: Intracellular calcium mobilization (Fluo-4 AM, FLIPR) in CHO cells expressing recombinant hNK2R; format: cell-based; settings: for EC50: calcium mobilization, CHO-hNK2 cells, agonist potency, read-out: hNK2R pEC50 (converted); for selectivity for activation of hNK2Rs vs hNK1Rs: from ratios of EC50s; for calcium response at hNK2R: tested at concentrations up to 10 μM
Experimental: as §1, §2, §3

[4] = molecular target: T2, human neurokinin 2 receptor; test: cell-based or functional assay
[5] = molecular target: T4, human neurokinin 1 receptor (human, UniProt P25103 1-407); test: cell-based or functional assay
[6] = molecular target: T2, human neurokinin 2 receptor; test: cell-based or functional assay; remark: listed apart in the source
[7] = molecular target: T4, human neurokinin 1 receptor; test: cell-based or functional assay; remark: listed apart in the source

T3 sequence (P25103 whole entry): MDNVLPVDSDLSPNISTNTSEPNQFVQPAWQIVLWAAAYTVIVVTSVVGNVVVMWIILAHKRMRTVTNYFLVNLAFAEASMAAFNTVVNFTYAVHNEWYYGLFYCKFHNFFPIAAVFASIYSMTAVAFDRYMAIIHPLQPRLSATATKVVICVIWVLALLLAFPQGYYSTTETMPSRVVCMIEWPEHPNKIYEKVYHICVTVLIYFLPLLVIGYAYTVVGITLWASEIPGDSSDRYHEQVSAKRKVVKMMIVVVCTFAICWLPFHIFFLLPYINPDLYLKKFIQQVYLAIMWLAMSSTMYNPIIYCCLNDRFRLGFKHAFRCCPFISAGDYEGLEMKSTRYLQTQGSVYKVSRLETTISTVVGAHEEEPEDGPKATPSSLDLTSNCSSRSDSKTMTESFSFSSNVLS
T4 sequence (P25103 whole entry): as above

Molecule	solubility [1] [µg/mL]	EC50 [2] [µM]	EC50 [3] [µM]	hNK2R pEC50 (intracellular calcium mobilization, FLIPR, CHO cells) [4]	hNK1R pEC50 (intracellular calcium mobilization, FLIPR, CHO cells) [5]	selectivity for activation of hNK2Rs vs hNK1Rs [3]	further results
CCCC[C@H](NC(=O)[C@H](CC(C)C)NC(=O)CCNC(=O)[C@@H](NC(=O)[C@H](Cc1ccccc1)NC(=O)[C@H](CO)NC(=O)[C@H](CC(=O)O)NC(=O)[C@@H](N)CCCCN)C(C)C)C(N)=O [Compound J, Lys-Asp-Ser-Phe-Val-(β-Ala)-Leu-Nle-NH2] (H-KDSFV[βAla]L[Nle]-NH2; N-terminus assumed)	< 100	0.302	0.0132			> 20 fold	Aqueous solubility [1]: <100 µg/mL; Emax ([2]; CHO, calcium response, CHO cells, full or partial agonists, read-out: maximal response at hNK1R compared to Substance P): ≥ 85%; Emax ([3]; calcium response, CHO cells, full agonists, read-out: maximal response at hNK2R compared to Neurokinin A): ≥ 85%
CCCC[C@H](NC(=O)[C@H](CC(C)C)NC(=O)CCNC(=O)[C@@H](NC(=O)[C@H](Cc1ccccc1)NC(=O)[C@H](CO)NC(=O)[C@@H](N)CC(=O)O)C(C)C)C(N)=O [H, Asp-Ser-Phe-Val-(β-Ala)-Leu-Nle-NH2] (H-DSFV[βAla]L[Nle]-NH2; N-terminus assumed)	< 100	> 10	> 10			did not exhibit selectivity for hNK2Rs; also recorded: do not exhibit selectivity for hNK2Rs	Aqueous solubility [1]: <100 µg/mL; calcium response at hNK1R [2]: did not elicit a significant calcium response; also recorded: do not elicit a significant calcium response; calcium response at hNK2R [3]: did not elicit a significant calcium response; also recorded: do not elicit a significant calcium response
CSCC[C@H](NC(=O)[C@H](CC(C)C)NC(=O)CCNC(=O)[C@@H](NC(=O)[C@H](Cc1ccccc1)NC(=O)[C@H](CO)NC(=O)[C@H](CC(=O)O)NC(=O)[C@@H](N)CCCCN)C(C)C)C(N)=O [I, Lys-Asp-Ser-Phe-Val-(β-Ala)-Leu-Met-NH2] (H-KDSFV[βAla]LM-NH2; N-terminus assumed)	≥ 5000	> 10	> 10			did not exhibit selectivity for hNK2Rs; also recorded: do not exhibit selectivity for hNK2Rs	calcium response at hNK1R [2]: did not elicit a significant calcium response; also recorded: do not elicit a significant calcium response; calcium response at hNK2R [3]: did not elicit a significant calcium response; also recorded: do not elicit a significant calcium response
KDSFV[βAla]LM-NH2 (N-terminus assumed; SMILES CSCC[C@H](NC(=O)[C@H](CC(C)C)NC(=O)CCNC(=O)[C@@H](NC(=O)[C@H](Cc1ccccc1)NC(=O)[C@H](CO)NC(=O)[C@H](CC(=O)O)NC(=O)[C@@H](N)CCCCN)C(C)C)C(N)=O) [Compound I (Lys-Asp-Ser-Phe-Val-(β-Ala)-Leu-Met-NH2)]				< 5	< 5		

More lines, main results first:

solubility [1] [µg/mL]	EC50 [2] [µM]	EC50 [3] [µM]	hNK2R pEC50 (intracellular calcium mobilization, FLIPR, CHO cells) [4]	hNK1R pEC50 (intracellular calcium mobilization, FLIPR, CHO cells) [5]	Molecule	selectivity for activation of hNK2Rs vs hNK1Rs [3]	further results
			< 5	< 5	DSFV[βAla]L[Nle]-NH2 (N-terminus assumed; SMILES CCCC[C@H](NC(=O)[C@H](CC(C)C)NC(=O)CCNC(=O)[C@@H](NC(=O)[C@H](Cc1ccccc1)NC(=O)[C@H](CO)NC(=O)[C@@H](N)CC(=O)O)C(C)C)C(N)=O) [Compound H (Asp-Ser-Phe-Val-(β-Ala)-Leu-Nle-NH2)]		
			9.17	6.31	XDSFVM (gc = Gly-(R-gamma-lactam)-Leu, (S)-2-((R)-3-amino)-2-oxopyrrolidin-1-yl)-4-methylpantanoyl moiety, between Val and Met; C-terminal amide (Met-NH2)) [Compound A (Asp-Ser-Phe-Val-gc-Met-NH2)]		maximal calcium response [6]: ≥ 85 % maximal response compared to Neurokinin A; maximal calcium response [7]: ≥ 85 % maximal response compared to Substance P; NK2R/NK1R selectivity ratio [4]: 724 fold
			8.44	6.32	DKFV[gc][Nle]-NH2 (N-terminus assumed; SMILES CCCC[C@H](NC(=O)[C@H](CC(C)C)N1CC[C@@H](NC(=O)[C@@H](NC(=O)[C@H](Cc2ccccc2)NC(=O)[C@H](CCCCN)NC(=O)[C@@H](N)CC(=O)O)C(C)C)C1=O)C(N)=O) [Compound D (Asp-Lys-Phe-Val-gc-Nle-NH2)]		maximal calcium response [6]: ≥ 85 % maximal response compared to Neurokinin A; maximal calcium response [7]: ≥ 85 % maximal response compared to Substance P; NK2R/NK1R selectivity ratio [4]: 132 fold
